In ChEMBL document CHEMBL1201862, “PubChem BioAssay data set” (2004):
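Exposure lasted 48 hours, with cells grown in 96-well plates and compounds tested at five concentrations. The concentration for 50% growth inhibition is given as GI50.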 Activity calls are given as the source filed them. Rule as the data show it: active = GI50 up to about 1.1 µM and inactive = higher.

Assays:
Test in all cases: growth of human tumour cells (NCI), 48 h
[1] = tested on: MDA-N
[2] = tested on: T47D
[3] = tested on: 786-0
[4] = tested on: TK-10
[5] = tested on: HCC 2998
[6] = tested on: SK-OV-3
[7] = tested on: NCI-H23
[8] = tested on: SF-539
[9] = tested on: EKVX
[10] = tested on: RXF 393
[11] = tested on: SF-268
[12] = tested on: SNB-19
[13] = tested on: CAKI-1
[14] = tested on: ACHN
[15] = tested on: MDA-MB-435
[16] = tested on: DU-145
[17] = tested on: OVCAR-3
[18] = tested on: MOLT-4
[19] = tested on: HCT-15
[20] = tested on: Malme-3M
[21] = tested on: LOX IMVI
[22] = tested on: PC-3
[23] = tested on: SW-620
[24] = tested on: HL-60
[25] = tested on: SF-295
[26] = tested on: SK-MEL-5
[27] = tested on: HOP-62
[28] = tested on: NCI-H522
[29] = tested on: NCI-H226
[30] = tested on: MDA-MB-231
[31] = tested on: SNB-75
[32] = tested on: SK-MEL-28
[33] = tested on: A549
[34] = tested on: U-251
[35] = tested on: SN12C
[36] = tested on: NCI-H460
[37] = tested on: IGROV-1
[38] = tested on: M14
[39] = tested on: K562
[40] = tested on: COLO 205
[41] = tested on: BT-549
[42] = tested on: MCF7
[43] = tested on: NCI/ADR-RES
[44] = tested on: SR
[45] = tested on: A498
[46] = tested on: SK-MEL-2
[47] = tested on: UACC-257
[48] = tested on: HCT-116
[49] = tested on: HOP-92
[50] = tested on: Hs-578T
[51] = tested on: HT-29
[52] = tested on: OVCAR-4
[53] = tested on: OVCAR-8
[54] = tested on: RPMI-8226
[55] = tested on: KM12
[56] = tested on: CCRF-CEM
[57] = tested on: OVCAR-5
[58] = tested on: UACC-62
[59] = tested on: UO-31

CSc1c(CC(=O)Nc2ccc(Cl)cc2)n(Cc2ccccc2)c2ccccc12
GI50 [1]: 76.4 µM (inactive)
GI50 [2]: 12.1 µM (inactive)
GI50 [3]: 11.3 µM (inactive)
GI50 [4]: 16 µM (inactive)
GI50 [5]: 19.5 µM (inactive)
GI50 [6]: 41.4 µM (inactive)
GI50 [7]: 29.1 µM (inactive)
GI50 [8]: 3 µM (inactive)
GI50 [9]: 12.1 µM (inactive)
GI50 [10]: 12.8 µM (inactive)
GI50 [11]: 12.9 µM (inactive)
GI50 [12]: 46.9 µM (inactive)
GI50 [13]: 22.8 µM (inactive)
GI50 [14]: 24.7 µM (inactive)
GI50 [15]: 49.3 µM (inactive)
GI50 [16]: 38.5 µM (inactive)
GI50 [17]: > 100 µM (inactive)
GI50 [18]: 43.1 µM (inactive)
GI50 [19]: 30.5 µM
GI50 [20]: 57.7 µM (inactive)
GI50 [21]: 38 µM (inactive)
GI50 [22]: 11 µM (inactive)
GI50 [23]: > 100 µM (inactive)
GI50 [24]: > 100 µM (inactive)
GI50 [25]: 62.7 µM (inactive)
GI50 [26]: 29.9 µM (inactive)
GI50 [27]: 21.2 µM (inactive)
GI50 [28]: 18.1 µM (inactive)
GI50 [29]: 20.8 µM (inactive)
GI50 [30]: 14.8 µM (inactive)
GI50 [31]: 13 µM (inactive)
GI50 [32]: > 100 µM (inactive)
GI50 [33]: 43.5 µM (inactive)
GI50 [34]: 11.6 µM (inactive)
GI50 [35]: 32 µM (inactive)
GI50 [36]: 25.5 µM (inactive)
GI50 [37]: 26.5 µM (inactive)
GI50 [38]: 58.2 µM (inactive)
GI50 [39]: 28 µM (inactive)
GI50 [40]: 44.6 µM (inactive)
GI50 [41]: 15.1 µM (inactive)
GI50 [42]: 18.6 µM (inactive)
GI50 [43]: 19.4 µM (inactive)
GI50 [44]: 23 µM (inactive)
GI50 [45]: 8.26 µM (inactive)
GI50 [46]: 14.2 µM (inactive)
GI50 [47]: 24.8 µM (inactive)
GI50 [48]: 23.9 µM (inactive)
GI50 [49]: 13.7 µM (inactive)
GI50 [50]: 14.4 µM (inactive)
GI50 [51]: 39.4 µM (inactive)
GI50 [52]: 11.7 µM (inactive)
GI50 [53]: 12.3 µM (inactive)
GI50 [54]: 67.5 µM (inactive)
GI50 [55]: > 100 µM (inactive)
GI50 [56]: 40.3 µM (inactive)
GI50 [57]: 29.6 µM (inactive)
GI50 [58]: 18.1 µM (inactive)
GI50 [59]: 34.3 µM (inactive)

CC(C)=CCC[C@@H](C)[C@H]1CC[C@@]2(C)[C@@H]3CC[C@H]4C(C)(C)[C@@H](O)CC[C@@]45C[C@@]35CC[C@]12C [CYCLOARTENOL]
GI50 [1]: > 72.9 µM (inactive)
GI50 [2]: 51.4 µM (inactive)
GI50 [3]: 43.8 µM (inactive)
GI50 [4]: > 100 µM (inactive)
GI50 [5]: > 31.6 µM (inactive)
GI50 [6]: 53.5 µM (inactive)
GI50 [7]: 22.7 µM (inactive)
GI50 [8]: > 49.7 µM (inactive)
GI50 [9]: 37.2 µM (inactive)
GI50 [10]: 18 µM (inactive)
GI50 [11]: 27.7 µM (inactive)
GI50 [12]: 58.7 µM (inactive)
GI50 [13]: 59.6 µM (inactive)
GI50 [14]: 31.5 µM (inactive)
GI50 [15]: > 41.9 µM (inactive)
GI50 [16]: 59.7 µM (inactive)
GI50 [17]: > 100 µM (inactive)
GI50 [18]: > 51.9 µM (inactive)
GI50 [19]: > 100 µM
GI50 [20]: > 100 µM (inactive)
GI50 [21]: 21 µM (inactive)
GI50 [22]: > 71.8 µM (inactive)
GI50 [23]: 58.2 µM (inactive)
GI50 [24]: 33.7 µM (inactive)
GI50 [25]: > 48.2 µM (inactive)
GI50 [26]: > 44.4 µM (inactive)
GI50 [27]: 24.9 µM (inactive)
GI50 [28]: 20.7 µM (inactive)
GI50 [29]: 26.5 µM (inactive)
GI50 [30]: > 44.9 µM (inactive)
GI50 [31]: > 55.7 µM (inactive)
GI50 [32]: 39.4 µM (inactive)
GI50 [33]: 21.6 µM (inactive)
GI50 [34]: 15.5 µM (inactive)
GI50 [35]: 20 µM (inactive)
GI50 [36]: 17.8 µM (inactive)
GI50 [37]: 16.1 µM (inactive)
GI50 [38]: 41 µM (inactive)
GI50 [39]: 26 µM (inactive)
GI50 [40]: > 60 µM (inactive)
GI50 [41]: 21.1 µM (inactive)
GI50 [42]: 31.8 µM (inactive)
GI50 [43]: 23.4 µM (inactive)
GI50 [44]: 24.3 µM (inactive)
GI50 [45]: 41.2 µM (inactive)
GI50 [46]: 27.2 µM (inactive)
GI50 [47]: > 100 µM (inactive)
GI50 [48]: 23.5 µM (inactive)
GI50 [49]: 17.7 µM (inactive)
GI50 [50]: 33.4 µM (inactive)
GI50 [51]: > 100 µM (inactive)
GI50 [52]: > 100 µM (inactive)
GI50 [53]: 16.9 µM (inactive)
GI50 [54]: 45 µM (inactive)
GI50 [55]: > 56.8 µM (inactive)
GI50 [56]: 23 µM (inactive)
GI50 [57]: > 54.2 µM (inactive)
GI50 [58]: 44.4 µM (inactive)
GI50 [59]: > 40.7 µM (inactive)
